Assay results published in the supplement of paper PMC11208160.

experiment: recombinant barcode read abundance after kanamycin selection (control-corrected) (log10(CPM+1)); higher = more efficient recombination; sequences stand for … in AGTGCAGAGAAAATCGGCCAGTTTTCTCTGCCTGCAGTCCGCATGCCGT…ATTTATGCAGCGGACTGCCTTTCTCCCAAAGTGATAAACCGGACAGTATCATGGACCGGTTTTCCCGGTAATCCGTATTTGCAAGGTTGGTTTCACT; site = the 11-nt target
Method: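 Same pooled E. coli target screen (IS621 bridge recombinase, kanamycin selection, control-corrected CPM, mean of 2 biological replicates). Here the two core-binding nucleotides of the LTG and RTG of the bridge RNA target-binding loop are mutated. Target and donor CT cores are held constant, and the other 9 guide positions match the target. The target is read from the library oligo sequence. Molecule = full bridge RNA written as DNA: nt 1-80 from the library oligo, rest WT scaffold.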

Sequence | recombinant barcode read abundance (log10)
AAACACAAATGGGTTCTAACCTGTTGCCTTT [AAACACACTAG_LTGcore_AA_RTGcore_AA] (site AAACACACTAG) (LTG core: AA, RTG core: AA) | 0.0994
AAACACAAGTGGGTTCTAACCTGTTGCCTAG [AAACACACTAG_LTGcore_AG_RTGcore_CT] (site AAACACACTAG) (LTG core: AG, RTG core: CT) | 0.0385
AAACACACCTGGGTTCTAACCTGTTGCCTGG [AAACACACTAG_LTGcore_CC_RTGcore_CC] (site AAACACACTAG) (LTG core: CC, RTG core: CC) | 1.46
AAACACACGTGGGTTCTAACCTGTTGCCTAG [AAACACACTAG_LTGcore_CG_RTGcore_CT] (site AAACACACTAG) (LTG core: CG, RTG core: CT) | 0.622
AAACACACTTGGGTTCTAACCTGTTGCCTGG [AAACACACTAG_LTGcore_CT_RTGcore_CC] (site AAACACACTAG) (LTG core: CT, RTG core: CC) | 0.927
AAACACACTTGGGTTCTAACCTGTTGCCTGT [AAACACACTAG_LTGcore_CT_RTGcore_AC] (site AAACACACTAG) (LTG core: CT, RTG core: AC) | 0.639

experiment: recombinant barcode read abundance after kanamycin selection (control-corrected) (log10(CPM+1)); higher = more efficient recombination; sequences stand for … in AGTGCAGAGAAAATCGGCCAGTTTTCTCTGCCTGCAGTCCGCATGCCGT…AGATTTATGCAGCGGACTGCCTTTCTCCCAAAGTGATAAACCGGACAGTATCATGGACCGGTTTTCCCGGTAATCCGTATTTGCAAGGTTGGTTTCACT; site = the 11-nt target
How it was run: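 Targets and IS621 bridge RNA target-binding loops were paired in oligos, each with a promoter, a barcode and the J23119-driven first 104 bridge RNA bases. A vector carrying the remaining 73 bp and a T7-inducible recombinase received these by Gibson cloning, and the pool was co-electroporated into E. coli with a donor plasmid. Duplicate plates contained chloramphenicol/ampicillin LB agar (control) or chloramphenicol/ampicillin/kanamycin with 0.1 mM IPTG. Recombination efficiency comes from averaged, control-corrected counts per million of recombinant-junction barcodes, reported as log10(CPM+1).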

Sequence | recombinant barcode read abundance (log10)
TTCTATGCTTGGGTTCTAACCTGTTGCGT (site TTCTATGCTAC) | 0.131
TTCTGAGCTTGGGTTCTAACCTGTTGCCT (site TTCTGAGCTAG) | 0.184
TTCTGAGCTTGGGTTCTAACCTGTTGCCT (site TTCTGCGCTAG) | 0.0635
TTCTGAGCTTGGGTTCTAACCTGTTGCCT (site TTCTGGGCTAG) | 0.115
TTCTGAGCTTGGGTTCTAACCTGTTGCCT (site TTCTGTGCTAG) | 0.0128
TTCTGTGCTTGGGTTCTAACCTGTTGCCT (site TTCTGAGCTAG) | 0.0672
TTCTGTGCTTGGGTTCTAACCTGTTGCCT (site TTCTGCGCTAG) | 0.0701
TTCTGTGCTTGGGTTCTAACCTGTTGCCT (site TTCTGGGCTAG) | 0.0555
TTCTGTGCTTGGGTTCTAACCTGTTGCCT (site TTCTGTGCTAG) | 0.0428
TTGAAATCTTGGGTTCTAACCTGTTGCCT (site TTGAAATCTAG) | 0.131
TTGAAATCTTGGGTTCTAACCTGTTGCCT (site TTGACATCTAG) | 0.0533
TTGAAATCTTGGGTTCTAACCTGTTGCCT (site TTGAGATCTAG) | 0.0296
TTGAAATCTTGGGTTCTAACCTGTTGCCT (site TTGATATCTAG) | 0.0563
TTGAACTCTTGGGTTCTAACCTGTTGCCT (site TTGAACTCTAG) | 1.18
TTGAACTCTTGGGTTCTAACCTGTTGCCT (site TTGAGCTCTAG) | 0.0203
TTGAATCCTTGGGTTCTAACCTGTTGCCA (site TTGAATCCTTG) | 0.71
TTGAATCCTTGGGTTCTAACCTGTTGCCA (site TTGAGTCCTTA) | 0.0534
TTGACATCTTGGGTTCTAACCTGTTGCCT (site TTGAAATCTAG) | 0.179
TTGACATCTTGGGTTCTAACCTGTTGCCT (site TTGACATCTAG) | 0.216
TTGACATCTTGGGTTCTAACCTGTTGCCT (site TTGAGATCTAG) | 0.0391
TTGACATCTTGGGTTCTAACCTGTTGCCT (site TTGATATCTAG) | 0.147
TTGACGACTTGGGTTCTAACCTGTTGCCG (site CACCGAGCTTA) | 0.149
TTGACGACTTGGGTTCTAACCTGTTGCCG (site TTGACGACTCG) | 0.452

Sequence | recombinant barcode read abundance (log10)
TTGAGATCTTGGGTTCTAACCTGTTGCCT (site TTGAAATCTAG) | 0.0577
TTGAGATCTTGGGTTCTAACCTGTTGCCT (site TTGACATCTAG) | 0
TTGAGATCTTGGGTTCTAACCTGTTGCCT (site TTGAGATCTAG) | 0.0355
TTGAGATCTTGGGTTCTAACCTGTTGCCT (site TTGATATCTAG) | 0.264
TTGAGCTCTTGGGTTCTAACCTGTTGCCT (site TTGAACTCTAG) | 0.0507
TTGAGCTCTTGGGTTCTAACCTGTTGCCT (site TTGAGCTCTAG) | 0.952
TTGAGGACTTGGGTTCTAACCTGTTGCCA (site TTGAGGACTAC) | 1.14
TTGAGGACTTGGGTTCTAACCTGTTGCCA (site TTGAGGACTTG) | 0.943
TTGAGTACTTGGGTTCTAACCTGTTGCCG (site TTGAGTACTCG) | 0.577
TTGAGTACTTGGGTTCTAACCTGTTGCCG (site TTGATTACTTG) | 0.0556
TTGAGTCCTTGGGTTCTAACCTGTTGCTA (site TTGAATCCTTG) | 0.037
TTGAGTCCTTGGGTTCTAACCTGTTGCTA (site TTGAGTCCTTA) | 0.488
TTGCATCCTTGGGTTCTAACCTGTTGCAG (site CGTTGGTCTTC) | 0.0529
TTGCATCCTTGGGTTCTAACCTGTTGCAG (site TTGCATCCTCT) | 0.802
TTGCCAACTTGGGTTCTAACCTGTTGCCT (site TTGCAAACTAG) | 0.146
TTGCCAACTTGGGTTCTAACCTGTTGCCT (site TTGCCAACTAG) | 0.332
TTGCCAACTTGGGTTCTAACCTGTTGCCT (site TTGCGAACTAG) | 0.0564
TTGCCAACTTGGGTTCTAACCTGTTGCCT (site TTGCTAACTAG) | 0.00831
TTGCCGACTTGGGTTCTAACCTGTTGCCT (site TTGCCGACTAG) | 0.716
TTGCCGACTTGGGTTCTAACCTGTTGCCT (site TTGCCTACTAG) | 0
TTGCCTACTTGGGTTCTAACCTGTTGCCT (site TTGCCGACTAG) | 0.0577
TTGCCTACTTGGGTTCTAACCTGTTGCCT (site TTGCCTACTAG) | 0.339
TTGCGAGCTTGGGTTCTAACCTGTTGCAT (site TTGCGAGCTAT) | 1.82

Sequence | recombinant barcode read abundance (log10)
TTGCGAGCTTGGGTTCTAACCTGTTGCAT (site TTGCGTGCTAA) | 0.0906
TTGGATCCTTGGGTTCTAACCTGTTGCTT (site TTGGATCCTAA) | 1.87
TTGGATCCTTGGGTTCTAACCTGTTGCTT (site TTGGATCCTAG) | 1.85
TTGGGCACTTGGGTTCTAACCTGTTGCCT (site TTGGACACTAG) | 0.196
TTGGGCACTTGGGTTCTAACCTGTTGCCT (site TTGGCCACTAG) | 0.176
TTGGGCACTTGGGTTCTAACCTGTTGCCT (site TTGGGCACTAG) | 0.0687
TTGGGCACTTGGGTTCTAACCTGTTGCCT (site TTGGTCACTAG) | 0.103
TTGGGTGCTTGGGTTCTAACCTGTTGCAT (site TAGGCTGCTAT) | 0.16
TTGGGTGCTTGGGTTCTAACCTGTTGCAT (site TTGGGTGCTAT) | 1.3
TTGGGTTCTTGGGTTCTAACCTGTTGCCT (site TTGGGTGCTCG) | 0.0625
TTGGGTTCTTGGGTTCTAACCTGTTGCCT (site TTGGGTTCTAG) | 0.767
TTGTACACTTGGGTTCTAACCTGTTGCTC (site CAACTAGCTAT) | 0.043
TTGTACACTTGGGTTCTAACCTGTTGCTC (site TTGTACACTGA) | 1.06
TTGTACTCTTGGGTTCTAACCTGTTGCTT (site TTGTACTCTAA) | 0.453
TTGTACTCTTGGGTTCTAACCTGTTGCTT (site TTGTGTTCTAA) | 0.0725
TTGTATTCTTGGGTTCTAACCTGTTGCCT (site TTGAATTCTAA) | 0.0409
TTGTATTCTTGGGTTCTAACCTGTTGCCT (site TTGTATTCTAG) | 0.679
TTGTCGACTTGGGTTCTAACCTGTTGCCA (site TTGACGACTTG) | 0.105
TTGTCGACTTGGGTTCTAACCTGTTGCCA (site TTGCCGACTTG) | 0.0807
TTGTCGACTTGGGTTCTAACCTGTTGCCA (site TTGGCGACTTG) | 0.00572
TTGTCGACTTGGGTTCTAACCTGTTGCCA (site TTGTCGACTTG) | 0.087
TTGTGAGCTTGGGTTCTAACCTGTTGCCA (site ACAGTTACTAT) | 0.0715
TTGTGAGCTTGGGTTCTAACCTGTTGCCA (site TTGTGAGCTTG) | 1.1
